{"source": "paper PMC3711574", "about": "(Biochemistry, 2012)", "origin": "cited, not measured here", "system": "BHRF-1", "conditions": "ref [67]"}
{"sequence": "MRPEIWIAQELRRIGDEFNAYYARRV [Bim]", "values": [{"measurement": "Binding to BHRF-1", "result": "binds"}]}
